Test results published in patent publication US10940139B2, “Compounds that interact with the Ras superfamily for the treatment of cancers, inflammatory diseases, rasopathies, and fibrotic disease” (Shy Therapeutics LLC, priority 2017, dated 2021).
Read-outs that look alike come from different tables or passages of the source.

What was measured:
Assay in all cases: Ras GTP binding domain inhibition assay (labeled GTP)
[1] = target: KRas G12D mutant protein (Homo sapiens (Human), UniProt P01116, G12D); settings: 20 μM compound
Chain of KRas G12D mutant protein (P01116-2 other isoform, or with tags, fused parts or gaps G12D): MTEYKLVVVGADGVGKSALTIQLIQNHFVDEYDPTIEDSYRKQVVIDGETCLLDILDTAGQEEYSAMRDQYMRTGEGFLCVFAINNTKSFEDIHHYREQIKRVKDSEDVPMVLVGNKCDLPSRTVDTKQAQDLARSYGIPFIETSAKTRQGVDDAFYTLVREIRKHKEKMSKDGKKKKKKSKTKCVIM

[2] = target: KRas G12D/Q61H double mutant (Homo sapiens (Human), UniProt P01116, G12D/Q61H); settings: for IC50: serial dilution, read-out: KRas G12D Q61H (classes E-H, IC50)
Chain of KRas G12D/Q61H double mutant (P01116-2 other isoform, or with tags, fused parts or gaps G12D/Q61H): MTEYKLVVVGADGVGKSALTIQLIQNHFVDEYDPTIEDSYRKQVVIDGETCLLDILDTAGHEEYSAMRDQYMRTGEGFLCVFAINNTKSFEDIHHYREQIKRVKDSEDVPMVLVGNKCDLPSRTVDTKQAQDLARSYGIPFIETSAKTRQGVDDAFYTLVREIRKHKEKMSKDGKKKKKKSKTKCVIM
Method in brief: (§1)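 Fluorescence read-out of Cy3-/Cy5-GTP remaining bound to nickel-immobilized His-KRas after washes. Protein was coated overnight at 4° C, then exposed to compound for 3 h at room temperature before a 45 min labeled-GTP incubation.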

[3] = target: KRas G12C mutant (Homo sapiens (Human), UniProt P01116, G12C); settings: 20 μM compound
Chain of KRas G12C mutant (P01116-2 other isoform, or with tags, fused parts or gaps G12C): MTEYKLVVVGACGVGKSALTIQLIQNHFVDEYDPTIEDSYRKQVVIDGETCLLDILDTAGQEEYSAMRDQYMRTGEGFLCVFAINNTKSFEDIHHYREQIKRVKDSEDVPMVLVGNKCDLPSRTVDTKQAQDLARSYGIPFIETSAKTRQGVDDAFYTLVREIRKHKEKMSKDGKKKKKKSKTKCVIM
Method in brief: as §1

[4] = target: KRas G12C/Q61H double mutant (Homo sapiens (Human), UniProt P01116, G12C/Q61H); settings: 20 μM compound
Chain of KRas G12C/Q61H double mutant (P01116-2 other isoform, or with tags, fused parts or gaps G12C/Q61H): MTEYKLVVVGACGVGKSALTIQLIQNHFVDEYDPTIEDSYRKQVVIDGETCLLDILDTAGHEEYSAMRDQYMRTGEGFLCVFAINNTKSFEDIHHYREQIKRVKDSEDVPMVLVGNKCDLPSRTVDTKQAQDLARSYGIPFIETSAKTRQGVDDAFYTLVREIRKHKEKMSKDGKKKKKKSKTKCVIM
Method in brief: as §1

[5] = target: KRas wild type (Homo sapiens (Human), UniProt P01116); settings: 20 μM compound
Chain of KRas wild type (P01116-2 other isoform, or with tags, fused parts or gaps): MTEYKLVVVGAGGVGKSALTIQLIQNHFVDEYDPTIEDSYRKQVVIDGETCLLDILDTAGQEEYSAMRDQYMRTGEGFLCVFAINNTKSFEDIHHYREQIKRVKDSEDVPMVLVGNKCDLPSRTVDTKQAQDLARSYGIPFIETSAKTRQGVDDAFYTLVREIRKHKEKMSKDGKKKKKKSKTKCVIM
Method in brief: as §1

[6] = target: KRas Q61H mutant (Homo sapiens (Human), UniProt P01116, Q61H); settings: 20 μM compound
Chain of KRas Q61H mutant (P01116-2 other isoform, or with tags, fused parts or gaps Q61H): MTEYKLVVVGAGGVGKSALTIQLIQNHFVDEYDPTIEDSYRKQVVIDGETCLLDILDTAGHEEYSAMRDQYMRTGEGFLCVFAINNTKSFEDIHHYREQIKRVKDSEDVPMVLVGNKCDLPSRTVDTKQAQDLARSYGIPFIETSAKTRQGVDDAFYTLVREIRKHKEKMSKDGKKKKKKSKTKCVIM
Method in brief: as §1

[7] = read-out: % Inhibition at 20 μM KRas G12D
[8] = 20 μM compound, read-out: % Inhibition at 20 μM KRas G12D Q61H
[9] = read-out: % Inhibition at 20 μM KRas G12C
[10] = read-out: % Inhibition at 20 μM KRas G12C Q61H
[11] = read-out: % Inhibition at 20 μM KRas wild type
[12] = read-out: % Inhibition at 20 μM KRas Q61H
[13] = KRas G12D, read-out: % Inhibition at 20 μM of K-Ras mutant and wild-type protein, KRas G12D
[14] = 20 μM compound, KRas G12D/Q61H double mutant, read-out: % Inhibition at 20 μM of K-Ras mutant and wild-type protein, KRas G12D Q61H
[15] = KRas G12C, read-out: % Inhibition at 20 μM of K-Ras mutant and wild-type protein, KRas G12C
[16] = KRas G12C/Q61H double mutant, read-out: % Inhibition at 20 μM of K-Ras mutant and wild-type protein, KRas G12C Q61H
[17] = KRas wild type, read-out: % Inhibition at 20 μM of K-Ras mutant and wild-type protein, KRas wild type
[18] = KRas Q61H, read-out: % Inhibition at 20 μM of K-Ras mutant and wild-type protein, KRas Q61H

Structure (SMILES)	inhibition at 20 µM [1, 7] [%]	inhibition at 20 µM [2, 8] [%]	inhibition at 20 µM [3, 9] [%]	inhibition at 20 µM [4, 10] [%]	inhibition at 20 µM [5, 11] [%]	inhibition at 20 µM [6, 12] [%]	further results
O=C(c1csc2c(O)nc(-c3ccccn3)nc12)N1CCNC(c2ccc(O)cc2)C1 (centres unmarked) [drawing 2808]	51 to 75	76 to 100	51 to 75	76 to 100	76 to 100	76 to 100	IC50 [2]: 5 to 10 µM
COc1cnc(-c2cn(C)cn2)nc1O [drawing 3512]							% Inhibition at 20 μM of K-Ras mutant and wild-type protein, KRas G12D ([1]; KRas G12D): C (51-75% inhibition); % Inhibition at 20 μM of K-Ras mutant and wild-type protein, KRas G12D Q61H ([2]; 20 μM compound, KRas G12D/Q61H double mutant): C (51-75% inhibition); % Inhibition at 20 μM of K-Ras mutant and wild-type protein, KRas G12C ([3]; KRas G12C): C (51-75% inhibition); % Inhibition at 20 μM of K-Ras mutant and wild-type protein, KRas G12C Q61H ([4]; KRas G12C/Q61H double mutant): C (51-75% inhibition); % Inhibition at 20 μM of K-Ras mutant and wild-type protein, KRas wild type ([5]; KRas wild type): B (25-50% inhibition); % Inhibition at 20 μM of K-Ras mutant and wild-type protein, KRas Q61H ([6]; KRas Q61H): D (76-100% inhibition)
Cn1nnc2ccc(-c3csc4c(O)nc(-c5ccccn5)nc34)cc21 [drawing 2861]	51 to 75	51 to 75	1 to 25	51 to 75	76 to 100	51 to 75	
Oc1nc(-c2ccccn2)nc2c(-c3ccccc3Cl)csc12 [drawing 2695]	25 to 50	51 to 75	25 to 50	51 to 75	1 to 25	51 to 75	
Oc1nc(-c2ccccn2)nc2c(-c3ccc4c(c3)CCCO4)csc12 [drawing 2902]	51 to 75	25 to 50	25 to 50	25 to 50	25 to 50	51 to 75	
COc1ccccc1-c1csc2c(O)nc(-c3ccccn3)nc12 [drawing 2870]	51 to 75	25 to 50	25 to 50	25 to 50	25 to 50	25 to 50	
COc1ccc(-c2csc3c(O)nc(-c4ccccn4)nc23)c(C)c1 [drawing 2881]	51 to 75	51 to 75	51 to 75	51 to 75	25 to 50	51 to 75	
Oc1nc(-c2ccccn2)nc2c(-c3ccc(F)cc3F)csc12 [drawing 2871]	51 to 75	51 to 75	25 to 50	51 to 75	25 to 50	51 to 75	
COCc1ccc(-c2csc3c(O)nc(-c4ccccn4)nc23)cc1F [drawing 2846]	51 to 75	51 to 75	51 to 75	51 to 75	25 to 50	51 to 75	
Oc1nc(-c2ccccn2)nc2c(-c3ccccn3)csc12 [drawing 2896]	25 to 50	1 to 25	25 to 50	51 to 75	51 to 75	25 to 50	
Oc1nc(-c2ccccn2)nc2c(-c3cccc(C(F)(F)F)c3)csc12 [drawing 2873]	51 to 75	25 to 50	25 to 50	25 to 50	25 to 50	51 to 75	
COCCNc1nc(-c2cn(C)cn2)nc2sc(-c3ccncc3)c(-c3ccccc3)c12 [drawing 3530]							inhibition at 20 µM [1, 13]: 51 to 75%; inhibition at 20 µM [2, 14]: 76 to 100%; inhibition at 20 µM [3, 15]: 51 to 75%; inhibition at 20 µM [4, 16]: 51 to 75%; inhibition at 20 µM [5, 17]: 51 to 75%; inhibition at 20 µM [6, 18]: 76 to 100%
CN(C)Cc1ccc(-c2csc3c(O)nc(-c4ccccn4)nc23)cc1F [drawing 2845]	76 to 100	76 to 100	25 to 50	76 to 100	51 to 75	76 to 100	
O=S1(=O)CCN(Cc2cccc(-c3csc4c(O)nc(-c5ccccn5)nc34)c2)CC1 [drawing 2864]	51 to 75	51 to 75	25 to 50	51 to 75	51 to 75	51 to 75	
O=C(COCc1ccnc(O)c1)Nc1nc(-c2ccccn2)nc2sccc12 [drawing 2857]	25 to 50	51 to 75	25 to 50	51 to 75	25 to 50	51 to 75	
O=C(COCc1ccncc1)Nc1nc(-c2ccccn2)nc2sccc12 [drawing 2828]	51 to 75	51 to 75	51 to 75	51 to 75	25 to 50	51 to 75	
CC(C)COc1ccc(-c2csc3c(O)nc(-c4ccccn4)nc23)cn1 [drawing 2877]	51 to 75	51 to 75	51 to 75	51 to 75	51 to 75	51 to 75	
Cc1sc2c(O)nc(-c3ccccn3)nc2c1-c1ccccc1 [drawing 2905]	51 to 75	51 to 75	25 to 50	25 to 50	1 to 25	25 to 50	
O=C(c1csc2c(O)nc(-c3ccccn3)nc12)N1CCNC(c2cn[nH]c2)C1 (centres unmarked) [drawing 2858]	25 to 50	51 to 75	25 to 50	51 to 75	25 to 50	76 to 100	
COc1cnc(-c2cnc[nH]2)nc1O [drawing 3516]							inhibition at 20 µM [1, 13]: 51 to 75%; inhibition at 20 µM [2, 14]: 51 to 75%; inhibition at 20 µM [3, 15]: 51 to 75%; inhibition at 20 µM [4, 16]: 51 to 75%; inhibition at 20 µM [5, 17]: 51 to 75%; inhibition at 20 µM [6, 18]: 51 to 75%
CN(C)Cc1ccc(F)c(-c2csc3c(O)nc(-c4ccccn4)nc23)c1 [drawing 2901]	51 to 75	25 to 50	25 to 50	51 to 75	51 to 75	51 to 75	IC50 [2]: 11 to 30 µM
Cc1cc2nc(-c3ccccn3)nc(N)c2s1 [drawing 2836]	51 to 75	51 to 75	1 to 25	51 to 75	25 to 50	51 to 75	
